# Values joined by “and” are separate entries in the source; they are usually repeats but may differ in a detail not shown here. Identical values can stand only once. Inconclusive results and toxic doses are left out.
# Test system: L1210 leukemia ip in BDF1 mice, survival T/C
# Experiment: NCI In Vivo Anticancer Drug Screen. Data for tumor model L1210 Leukemia (intraperitoneal) in B6D2F1 (BDF1) mice
# Details: endpoint: mean survival time, higher = longer survival
# Method in brief: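 Ratio derived from survival: compound-dosed mice over vehicle-dosed mice, all bearing a transplantable tumor.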
# [1] = dose: 50.0 mg/kg/injection, schedule: Q01DX001 (ip), vehicle: carboxymethylcellulose (CMC)
# [2] = dose: 100.0 mg/kg/injection, schedule: Q01DX001 (ip), vehicle: carboxymethylcellulose (CMC)
# [3] = dose: 150.0 mg/kg/injection, schedule: Q01DX001 (ip), vehicle: saline
# [4] = dose: 200.0 mg/kg/injection, schedule: Q01DX001 (ip), vehicle: carboxymethylcellulose (CMC)
# [5] = dose: 400.0 mg/kg/injection, schedule: Q01DX001 (ip), vehicle: carboxymethylcellulose (CMC)
smiles,measurement,setting,value
COc1cc([C@@H]2c3cc4c(cc3[C@H](O)[C@H]3COC(=O)[C@@H]23)OCO4)cc(OC)c1OC,T/C,"dose: 6.0 mg/kg/injection, schedule: Q01DX009 (ip), vehicle: Klucel (hydroxypropylcellulose) (HPC)",88 % of control
same,T/C,"dose: 6.25 mg/kg/injection, schedule: Q01DX009 (ip), vehicle: saline",105 % of control
same,T/C,"dose: 7.0 mg/kg/injection, schedule: Q01DX Z (ip), vehicle: methylcellulose (MC)",100 % of control
same,T/C,"dose: 11.0 mg/kg/injection, schedule: Q01DX Z (ip), vehicle: methylcellulose (MC)",112 % of control
same,T/C,"dose: 12.0 mg/kg/injection, schedule: Q01DX009 (ip), vehicle: Klucel (hydroxypropylcellulose) (HPC)",95 % of control
same,T/C,"dose: 12.5 mg/kg/injection, schedule: Q01DX009 (ip), vehicle: saline",107 % of control
same,T/C,"dose: 15.0 mg/kg/injection, schedule: Q01DX Z (ip), vehicle: methylcellulose (MC)",116 % of control
same,T/C,"dose: 15.0 mg/kg/injection, schedule: Q04DX003 (ip), vehicle: Klucel (hydroxypropylcellulose) (HPC)",107 % of control
same,T/C,"dose: 16.0 mg/kg/injection, schedule: Q01DX Z (ip), vehicle: methylcellulose (MC)",120 % of control
same,T/C,"dose: 24.0 mg/kg/injection, schedule: Q01DX009 (ip), vehicle: Klucel (hydroxypropylcellulose) (HPC)",101 % of control
same,T/C,"dose: 24.0 mg/kg/injection, schedule: Q01DX Z (ip), vehicle: methylcellulose (MC)",88 % of control
same,T/C,"dose: 25.0 mg/kg/injection, schedule: Q01DX009 (ip), vehicle: saline",113 % of control
same,T/C,"dose: 30.0 mg/kg/injection, schedule: Q01DX Z (ip), vehicle: methylcellulose (MC)",101 % of control
same,T/C,"dose: 30.0 mg/kg/injection, schedule: Q04DX003 (ip), vehicle: Klucel (hydroxypropylcellulose) (HPC)",96 % of control
same,T/C,"dose: 37.5 mg/kg/injection, schedule: Q04DX003 (ip), vehicle: Klucel (hydroxypropylcellulose) (HPC)",97 % of control
same,T/C,"dose: 45.0 mg/kg/injection, schedule: Q01DX001 (ip), vehicle: saline",94 % of control and 102 % of control
same,T/C,"dose: 48.0 mg/kg/injection, schedule: Q01DX009 (ip), vehicle: Klucel (hydroxypropylcellulose) (HPC)",120 % of control
same,T/C,[1],107 % of control
same,T/C,"dose: 60.0 mg/kg/injection, schedule: Q04DX003 (ip), vehicle: Klucel (hydroxypropylcellulose) (HPC)",100 % of control
same,T/C,"dose: 65.0 mg/kg/injection, schedule: Q01DX001 (ip), vehicle: saline",96 % of control and 124 % of control
same,T/C,"dose: 75.0 mg/kg/injection, schedule: Q01DX009 (ip), vehicle: saline",92 % of control
same,T/C,"dose: 75.0 mg/kg/injection, schedule: Q04DX003 (ip), vehicle: Klucel (hydroxypropylcellulose) (HPC)",114 % of control
same,T/C,[2],105 % of control
same,T/C,"dose: 100.0 mg/kg/injection, schedule: Q01DX001 (ip), vehicle: saline",96 % of control
same,T/C,"dose: 120.0 mg/kg/injection, schedule: Q04DX003 (ip), vehicle: Klucel (hydroxypropylcellulose) (HPC)",104 % of control
same,T/C,[3],93 % of control and 107 % of control
same,T/C,"dose: 150.0 mg/kg/injection, schedule: Q04DX003 (ip), vehicle: Klucel (hydroxypropylcellulose) (HPC)",111 % of control
same,T/C,[4],110 % of control
same,T/C,"dose: 240.0 mg/kg/injection, schedule: Q04DX003 (ip), vehicle: Klucel (hydroxypropylcellulose) (HPC)",91 % of control
same,T/C,"dose: 300.0 mg/kg/injection, schedule: Q04DX003 (ip), vehicle: Klucel (hydroxypropylcellulose) (HPC)",100 % of control
same,T/C,[5],102 % of control
COc1cc(OC)c(OC)cc1/C=C/c1cc[n+](C)c2ccccc12,T/C,"dose: 25.0 mg/kg/injection, schedule: Q04DX002 (ip), vehicle: Klucel (hydroxypropylcellulose) (HPC)",95 % of control
same,T/C,"dose: 50.0 mg/kg/injection, schedule: Q04DX002 (ip), vehicle: Klucel (hydroxypropylcellulose) (HPC)",101 % of control
same,T/C,"dose: 100.0 mg/kg/injection, schedule: Q04DX002 (ip), vehicle: Klucel (hydroxypropylcellulose) (HPC)",109 % of control and 111 % of control
Cc1nc(N)nc2c1CCC(O)S2 (configuration not stated),T/C,"dose: 50.0 mg/kg/injection, schedule: Q01DX001 (ip), vehicle: Klucel (hydroxypropylcellulose) (HPC)",89 % of control
same,T/C,"dose: 200.0 mg/kg/injection, schedule: Q01DX001 (ip), vehicle: Klucel (hydroxypropylcellulose) (HPC)",86 % of control
CC(C)/C=C/C1(C(C)C)C(=O)NC(=S)NC1=O,T/C,"dose: 75.0 mg/kg/injection, schedule: Q01DX001 (ip), vehicle: saline",95 % of control
same,T/C,[3],100 % of control
same,T/C,"dose: 300.0 mg/kg/injection, schedule: Q01DX001 (ip), vehicle: saline",98 % of control
O/N=C\c1cc[n+](CC[n+]2ccc(/C=N/O)cc2)cc1,T/C,"dose: 100.0 mg/kg/injection, schedule: Q04DX002 (ip), vehicle: other",112 % of control
CCN(CC)c1cc(C(C)(C)C)cc(C(C)(C)C)c1,T/C,"dose: 100.0 mg/kg/injection, schedule: Q04DX003 (ip), vehicle: saline sonified",114 % of control
same,T/C,"dose: 200.0 mg/kg/injection, schedule: Q04DX003 (ip), vehicle: saline sonified",94 % of control
same,T/C,"dose: 400.0 mg/kg/injection, schedule: Q04DX003 (ip), vehicle: saline sonified",101 % of control
CCCCCCN(CCCCCC)CC(=O)NCCCN1CCN(CCCNC(=O)CN(CCCCCC)CCCCCC)CC1,T/C,"dose: 12.5 mg/kg/injection, schedule: Q01DX001 (ip), vehicle: carboxymethylcellulose (CMC)",105 % of control
same,T/C,"dose: 22.0 mg/kg/injection, schedule: Q01DX001 (ip), vehicle: carboxymethylcellulose (CMC)",98 % of control and 104 % of control
same,T/C,"dose: 25.0 mg/kg/injection, schedule: Q01DX001 (ip), vehicle: carboxymethylcellulose (CMC)",100 % of control
same,T/C,"dose: 33.0 mg/kg/injection, schedule: Q01DX001 (ip), vehicle: carboxymethylcellulose (CMC)",95 % of control and 100 % of control
same,T/C,[1],98 % of control and 101 % of control
COc1ccc(-c2cc(Cl)c([N+](=O)[O-])cc2[N+](=O)[O-])cc1,T/C,[1],100 % of control
same,T/C,[2],107 % of control
same,T/C,[4],110 % of control
same,T/C,[5],102 % of control
O=C(O)Cc1ccc2[nH]c3c(c2c1)CCCC3,T/C,"dose: 50.0 mg/kg/injection, schedule: Q01DX009 (ip), vehicle: Klucel (hydroxypropylcellulose) (HPC)",105 % of control
same,T/C,"dose: 100.0 mg/kg/injection, schedule: Q01DX001 (ip), vehicle: steriod suspending solution",95 % of control
same,T/C,"dose: 100.0 mg/kg/injection, schedule: Q01DX009 (ip), vehicle: Klucel (hydroxypropylcellulose) (HPC)",103 % of control
same,T/C,"dose: 200.0 mg/kg/injection, schedule: Q01DX001 (ip), vehicle: steriod suspending solution",92 % of control
same,T/C,"dose: 200.0 mg/kg/injection, schedule: Q01DX009 (ip), vehicle: Klucel (hydroxypropylcellulose) (HPC)",97 % of control
S=c1cccn[nH]1,T/C,"dose: 12.5 mg/kg/injection, schedule: Q01DX009 (ip), vehicle: other",459 % of control
same,T/C,"dose: 25.0 mg/kg/injection, schedule: Q01DX009 (ip), vehicle: other",459 % of control
same,T/C,"dose: 50.0 mg/kg/injection, schedule: Q01DX009 (ip), vehicle: other",406 % of control
same,T/C,"dose: 59.0 mg/kg/injection, schedule: Q01DX009 (ip), vehicle: other",93 % of control and 101 % of control
same,T/C,"dose: 89.0 mg/kg/injection, schedule: Q01DX009 (ip), vehicle: other",96 % of control and 99 % of control
same,T/C,"dose: 100.0 mg/kg/injection, schedule: Q01DX009 (ip), vehicle: other",341 % of control
same,T/C,"dose: 133.0 mg/kg/injection, schedule: Q01DX009 (ip), vehicle: other",94 % of control and 100 % of control
same,T/C,"dose: 300.0 mg/kg/injection, schedule: Q01DX009 (ip), vehicle: other",96 % of control and 90 % of control
Cc1cc2c(-c3ccccc3)c(C(=O)c3ccccc3)c(C(=O)c3ccccc3)c(-c3ccccc3)c2cc1C,T/C,"dose: 100.0 mg/kg/injection, schedule: Q01DX001 (ip), vehicle: saline with Tween-80",89 % of control
same,T/C,"dose: 200.0 mg/kg/injection, schedule: Q01DX001 (ip), vehicle: saline with Tween-80",89 % of control
same,T/C,"dose: 400.0 mg/kg/injection, schedule: Q01DX001 (ip), vehicle: saline with Tween-80",89 % of control
CCCCCCCCCCNC(=O)C[n+]1cccc(C(N)=O)c1,T/C,"dose: 12.5 mg/kg/injection, schedule: Q04DX003 (ip), vehicle: saline",86 % of control
same,T/C,"dose: 25.0 mg/kg/injection, schedule: Q04DX003 (ip), vehicle: saline",89 % of control
same,T/C,"dose: 50.0 mg/kg/injection, schedule: Q04DX003 (ip), vehicle: saline",102 % of control
CC(C)CC(NC(=O)OC(C)(C)C)C(=O)O (configuration not stated),T/C,"dose: 100.0 mg/kg/injection, schedule: Q01DX001 (ip), vehicle: other",104 % of control
same,T/C,"dose: 200.0 mg/kg/injection, schedule: Q01DX001 (ip), vehicle: other",93 % of control
same,T/C,"dose: 400.0 mg/kg/injection, schedule: Q01DX001 (ip), vehicle: other",98 % of control
ClC(c1ccccc1)c1ccc(Br)cc1 (configuration not stated),T/C,"dose: 100.0 mg/kg/injection, schedule: Q04DX003 (ip), vehicle: Klucel (hydroxypropylcellulose) (HPC)",108 % of control
same,T/C,"dose: 200.0 mg/kg/injection, schedule: Q04DX003 (ip), vehicle: Klucel (hydroxypropylcellulose) (HPC)",101 % of control
same,T/C,"dose: 400.0 mg/kg/injection, schedule: Q04DX003 (ip), vehicle: Klucel (hydroxypropylcellulose) (HPC)",90 % of control
